Measured values from patent US10519211B2, “Compounds as peptidic GLP1/glucagon/GIP receptor agonists” (SANOFI, priority 2016, dated 2019).
Numbered stars: 1 amine (or outer) side, 2 acyl side, 3 side chain; on linkers, the order of the positions; unused ones are H or OH. Square brackets hold non-standard residues; d marks the D form. Side chains are listed from the residue outwards. Peptide text beside a SMILES is read from it. * marks the point of attachment. Adipoyl(4R-palmitoylamino) = CCCCCCCCCCCCCCCC(=O)N[C@H](CCC(=O)*)CC(=O)O; γGlu = O=C(O)[C@H](CCC(=O)[*:2])N[*:1]; Palmitoyl = CCCCCCCCCCCCCCCC(=O)*; AEEA = NCCOCCOCC(=O)O; Aib = CC(C)(N)C(=O)O

Key:
[1] = Chemical stability assessment (UPLC-UV, relative purity loss); type: physicochemical; conditions: 1 mg/ml, 25 mM acetate buffer pH 4.5 with m-cresol (buffer system A)
Protocol: Prior to the chemical stability measurement of a peptide batch, its purity was determined through UPLC/MS. For stability testing the target concentration was 1 mg pure compound/ml. Therefore solutions from solid samples were prepared in a buffer system with a concentration of 1 mg/mL compound based on the previously determined % purity:
Chemical stability buffer system A) 25 mM acetate buffer pH4.5, 3 mg/mL L-Methionine, 2.7 mg/mL m-cresol, 18 mg/mL Glycerol 85%
Peptide solutions were filtered through […] pore size and filled into aliquots under aseptic conditions. At starting point UPLC-UV was performed by injection of 2 μl of the undiluted sample.
For chemical stability testing, aliquots were stored for 28 days at Sand 40° C. After this time course the samples were centrifuged for 15 min at 2500 RCF. Then 2 μl of the undiluted supernatant were analysed with UPLC-UV.
The chemical stability was rated through the relative loss of purity calculated by the equation: [(purity at starting point)−(purity after 28 days at X° C.)]/(purity at starting point)]*100%
The purity is calculated as [(peak area peptide)/(total peak area)]*100%
Peptide samples were prepared in Chemical stability buffer system A and chemical stability was assessed as described in Methods.

[2] = Solubility assessment (UPLC-UV); type: physicochemical; conditions: acetate buffer pH 4.5, 2.7 mg/ml m-cresol (buffer system A), target 10 mg/ml
Protocol: Prior to the solubility measurement of a peptide batch, its purity was determined through UPLC/MS.
Therefore solutions from solid samples were prepared in a buffer systems with a concentration of 10 mg/mL compound based on the previously determined % purity:
Solubility buffer system A) Acetate Buffer pH 4.5, 100 mM sodium acetate trihydrate, 2.7 mg/ml m-Cresol
UPLC-UV was performed after 1 hour of gentle agitation from the supernatant, which was obtained after 15 min of centrifugation at 2500 RCF (relative centrifugal acceleration).
The solubility was determined by the comparison of the UV peak area of 2 μL-injection of a buffered sample diluted 1:10 with a standard curve of a reference peptide with known concentration. The different UV extinction coefficients of sample and reference peptide were calculated based on the different amino acid sequences and considered in the concentration calculation.
Peptide samples were prepared in solubility buffer system A and solubility was assessed as described in Methods.

[3] = Thioflavin T (ThT) assay for physical stability (fibrillation); type: physicochemical; conditions: 3 mg/ml, 100 mM acetate pH 4.5 with m-cresol, shaking at 37° C.
Protocol: Investigations were carried out to determine fibrillation tendencies under stress conditions by shaking at 37° C. within Fluoroskan Ascent FL.
For the tests in Fluoroskan Ascent FL, 200 μL sample were placed into a 96 well mictrotiter plate PS, flat bottom, Greiner Fluotrac No. 655076. Plates were sealed with Scotch Tape (Quiagen). Samples were stressed by continuous cycles of 10 s shaking at 960 rpm and 50 s rest period at 37° C. The kinetic was monitored by measuring fluorescence intensity every 20 minutes.
Peptides were diluted in a buffer system to a final concentration of 3 mg/ml. 20 μL of a 10.1 mM ThT solution in H2O were added to 2 mL of peptide solution to receive a final concentration of 100 μM ThT. For each sample eight replicates were tested.
Tht buffer system A) 100 mM Acetate pH 4.5 including m-cresol (100 mM Natriumacetat trihydrat, pH adjustment using 2N CH3COOH, 2.7 mg/mL m-cresol) Tht buffer system B) 100 mM citrate buffer pH 6.0
Lag time in hours in Thioflavin T (ThT) assay of peptide samples was determined in Tht buffer system A as described in Methods.

[4] = Dynamic light scattering (DLS), hydrodynamic radius as surrogate for interaction parameter kD; type: physicochemical
Protocol: For every peptide solution, the hydrodynamic radius Rh and the diffusion constant D (related via the Stokes-Einstein equation) were determined as an average over triplicates. Both parameters were determined at different concentrations (e.g., Rh1 and D1: 1 mg/ml and Rh5 and D5: 5 mg/ml) in the same buffer system. The difference of these parameters between low and high peptide concentration is a surrogate for the DLS interaction parameter kD. Rh5<Rh1 or D5>D1 correspond to kD>0 and therefore to repulsive inter-particle interactions that result in improved physical (or colloidal) stability.
DLS buffer system A) 25 mM acetate buffer pH4.5, 3 mg/mL L-Methionine, 2.7 mg/mL m-cresol, 18 mg/mL Glycerol 85%
DLS Method C: DLS measurements were performed on a DynaPro Plate Reader II (Wyatt Technology, Santa Barbara, Calif., US) and using one of the following black, low volume, and non-treated plates: polystyrene 384 assay plate with clear bottom (Corning, N.Y., US), polystyrene 96 assay plate with clear bottom (Corning, N.Y., US), cyclo olefin polymer (COP) 384 assay plate with clear bottom (Aurora, Mont., US), or polystyrene 384 assay plate with clear bottom (Greiner Bio-One, Germany). The data were processed with the Dynamics software provided by Wyatt Technology. Parameters of the particle size distribution were determined with non-negatively constrained least squares (NNLS) methods using DynaLS algorithms. Measurements were taken at 25° C. with an 830 nm laser light source at an angle of 158°.
The hydrodynamic radius radius Rh of peptide samples was determined at different peptide concentrations (1 mg/ml and 5 mg/ml) in DLS buffer system A using DLS method C as described in Methods as surrogate for the DLS interaction parameter kD.

[5] = target: T1, human GIP receptor (hGIP-R) (Homo sapiens, UniProt P48546); assay: cAMP response (HTRF) of HEK-293 cells stably expressing human GIP receptor; type: cell-based; conditions: Table 8; cAMP formation
T1 construct: expressed in transfected cells; host or cells: HEK-293
T1 sequence (P48546 22-466): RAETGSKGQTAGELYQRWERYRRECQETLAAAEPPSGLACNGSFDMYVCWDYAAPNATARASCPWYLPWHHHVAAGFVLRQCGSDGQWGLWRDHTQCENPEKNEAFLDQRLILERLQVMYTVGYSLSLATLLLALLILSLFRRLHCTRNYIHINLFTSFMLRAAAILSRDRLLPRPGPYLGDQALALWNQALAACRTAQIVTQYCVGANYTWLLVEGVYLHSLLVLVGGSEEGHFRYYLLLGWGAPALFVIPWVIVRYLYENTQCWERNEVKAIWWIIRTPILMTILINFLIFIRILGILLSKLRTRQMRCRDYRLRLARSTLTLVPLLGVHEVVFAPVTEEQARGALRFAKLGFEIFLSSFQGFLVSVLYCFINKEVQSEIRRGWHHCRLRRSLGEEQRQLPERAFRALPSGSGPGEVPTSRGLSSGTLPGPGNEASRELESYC
Protocol: (§1) cAMP content of cells was determined using a kit from Cisbio Corp. (cat. no. 62AM4PEJ) based on HTRF (Homogenous Time Resolved Fluorescence). For preparation, cells were split into T175 culture flasks and grown overnight to near confluency in medium (DMEM/10% FBS). Medium was then removed and cells washed with PBS lacking calcium and magnesium, followed by proteinase treatment with accutase (Sigma-Aldrich cat. no. A6964). Detached cells were washed and resuspended in assay buffer (1×HBSS; 20 mM HEPES, 0.1% BSA, 2 mM IBMX) and cellular density determined. They were then diluted to 400000 cells/ml and 25 μl-aliquots dispensed into the wells of 96-well plates. For measurement, 25 μl of test compound in assay buffer was added to the wells, followed by incubation for 30 minutes at room temperature.
(§2) Potencies of peptidic compounds at the GLP-1, glucagon and GIP receptors were determined by exposing cells expressing human glucagon receptor (hGlucagon R), human GIP receptor (hGIP-R) or human GLP-1 receptor (hGLP-1 R) to the listed compounds at increasing concentrations and measuring the formed cAMP as described in Methods.

[6] = target: T2, human GLP-1 receptor (hGLP-1 R) (Homo sapiens, UniProt P43220); assay: cAMP response (HTRF) of HEK-293 cells stably expressing human GLP-1 receptor; type: cell-based; conditions: Table 8; cAMP formation
T2 construct: expressed in transfected cells; host or cells: HEK-293
T2 sequence (P43220 24-463): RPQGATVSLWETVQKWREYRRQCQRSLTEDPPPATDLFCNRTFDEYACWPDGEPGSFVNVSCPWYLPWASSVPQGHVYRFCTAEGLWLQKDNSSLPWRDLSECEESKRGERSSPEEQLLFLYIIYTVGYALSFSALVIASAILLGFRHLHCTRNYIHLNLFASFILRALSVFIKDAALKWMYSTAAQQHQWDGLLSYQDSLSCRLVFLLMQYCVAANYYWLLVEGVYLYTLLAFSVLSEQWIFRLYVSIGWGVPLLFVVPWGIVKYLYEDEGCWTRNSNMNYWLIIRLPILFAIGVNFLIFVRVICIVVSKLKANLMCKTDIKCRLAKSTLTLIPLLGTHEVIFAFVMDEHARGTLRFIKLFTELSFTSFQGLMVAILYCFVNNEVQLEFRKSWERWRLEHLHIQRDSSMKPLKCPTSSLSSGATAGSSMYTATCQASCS
Protocol: as §1, §2

Chemical stability [relative purity loss 28 days 40° C.] (%) at pH 4.5 [1] [%]	solubility at 1 h [2] [µg/mL]	Lag time before increase [3] [h]	Delta Rh [nm] = Rh5 − Rh1 ([4]; DLS buffer system A pH 4.5) [nm]	Rh1 [nm] c= 1 mg/ml ([4]; hydrodynamic radius, 1 mg/ml, DLS buffer system A pH 4.5, DLS method C, 25° C.) [nm]	Rh5 [nm] c = 5 mg/ml ([4]; hydrodynamic radius, 5 mg/ml, DLS buffer system A pH 4.5, DLS method C, 25° C.) [nm]	EC50 [5] [pM]	EC50 [6] [pM]	SMILES
6.0	> 9200	>45	−0.1	3.1	3.0	7.9	–	CCCCCCCCCCCCCCCC(=O)NCCOCCOCC(=O)N[C@@H](CCC(=O)N[C@@H](CCC(=O)NCCCC[C@H](NC(=O)[C@H](CC(C)C)NC(=O)[C@H](CCCCN)NC(=O)[C@H](CO)NC(=O)[C@H](CC(C)C)NC(=O)[C@H](CC(=O)O)NC(=O)[C@H](CO)NC(=O)[C@@H](NC(=O)[C@H](Cc1ccccc1)NC(=O)[C@@H](NC(=O)CNC(=O)[C@H](CCC(N)=O)NC(=O)C(C)(C)NC(=O)[C@@H](N)Cc1c[nH]cn1)[C@@H](C)O)[C@@H](C)O)C(=O)N[C@@H](CCC(=O)O)C(=O)N[C@@H](CCC(=O)O)C(=O)N[C@@H](CCC(N)=O)C(=O)N[C@@H](CCCNC(=N)N)C(=O)N[C@@H](CCC(N)=O)C(=O)NC(C)(C)C(=O)N[C@@H](CCC(=O)O)C(=O)N[C@@H](Cc1ccccc1)C(=O)N[C@H](C(=O)N[C@@H](CCC(=O)O)C(=O)N[C@@H](Cc1c[nH]c2ccccc12)C(=O)N[C@@H](CC(C)C)C(=O)N[C@@H](CCCCN)C(=O)N[C@@H](C)C(=O)N[C@H](C)C(=O)NCC(=O)N[C@@H](Cc1c[nH]cn1)C(=O)N1CCC[C@H]1C(=O)N[C@@H](CO)C(=O)NC(C)(C)C(=O)N[C@@H](CCCCN)C(=O)N1CCC[C@H]1C(=O)N1CCC[C@H]1C(=O)N1CCC[C@H]1C(=O)N[C@@H](CCCCN)C(N)=O)[C@@H](C)CC)C(=O)O)C(=O)O [SEQ ID NO: 19, H-Aib-Q-G-T-F-T-S-D-L-S-K-L-K[gGlu-gGlu-AEEA-Palm]-E-E-Q-R-Q-Aib-E-F-I-E-W-L-K-A-dAla-G-H-P-S-Aib-K-P-P-P-K-NH2] (H-H[Aib]QGTFTSDLSKLK([γGlu-γGlu-AEEA-Palmitoyl])EEQRQ[Aib]EFIEWLKA[dA]GHPS[Aib]KPPPK-NH2)
–	–	>45	–	–	–	–	2.4	CCCCCCCCCCCCCCCC(=O)N[C@H](CCC(=O)NCCOCCOCC(=O)N[C@@H](CCC(=O)NCCCC[C@H](NC(=O)[C@H](CC(C)C)NC(=O)[C@H](CCCCN)NC(=O)[C@H](CO)NC(=O)[C@H](CC(C)C)NC(=O)[C@H](CC(=O)O)NC(=O)[C@H](CO)NC(=O)[C@@H](NC(=O)[C@H](Cc1ccccc1)NC(=O)[C@@H](NC(=O)CNC(=O)[C@H](CCC(N)=O)NC(=O)C(C)(C)NC(=O)[C@@H](N)Cc1c[nH]cn1)[C@@H](C)O)[C@@H](C)O)C(=O)N[C@@H](CCC(=O)O)C(=O)N[C@@H](CCCCN)C(=O)N[C@@H](CCC(N)=O)C(=O)N[C@@H](CCCNC(=N)N)C(=O)N[C@@H](CCC(N)=O)C(=O)NC(C)(C)C(=O)N[C@@H](CCC(=O)O)C(=O)N[C@@H](Cc1ccccc1)C(=O)N[C@H](C(=O)N[C@@H](CCC(=O)O)C(=O)N[C@@H](Cc1c[nH]c2ccccc12)C(=O)N[C@@H](CC(C)C)C(=O)N[C@@H](CCCCN)C(=O)N[C@@H](C)C(=O)NCC(=O)NCC(=O)N[C@@H](Cc1c[nH]cn1)C(=O)N1CCC[C@H]1C(=O)N[C@@H](CO)C(=O)NC(C)(C)C(=O)N[C@@H](CCCCN)C(=O)N1CCC[C@H]1C(=O)N1CCC[C@H]1C(=O)N1CCC[C@H]1C(=O)N[C@@H](CCCCN)C(N)=O)[C@@H](C)CC)C(=O)O)CC(=O)O [SEQ ID NO: 20, H-Aib-Q-G-T-F-T-S-D-L-S-K-L-K[gGlu-AEEA-gAAA-Palm]-E-K-Q-R-Q-Aib-E-F-I-E-W-L-K-A-G-G-H-P-S-Aib-K-P-P-P-K-NH2] (H-H[Aib]QGTFTSDLSKLK([γGlu-AEEA-Adipoyl(4R-palmitoylamino)])EKQRQ[Aib]EFIEWLKAGGHPS[Aib]KPPPK-NH2)
